According to patent US11224224B2, “Thiobenzoimidazole as fungicides” (REDAG CROP PROTECTION LTD, priority 2017, dated 2022):
Values after ≈ are worked out from the molar mass of the structure shown.

Tests used:
Assay type in all cases: cell-based
Phytophthora cinnamomi = experiment: Amended agar assay (PDA), colony growth; parameters: key to % control Phytophthora spp. 20 ppm: D: no control detected at this concentration; C: up to 50% control; B: from 50 to 99% control; A: a control of greater than 99%, i.e. no detectable colony growth; conditions: for EC50 / inhibition of growth at 20 ppm: Phytophthora cinnamomi; for EC50: amended agar, 5-fold dilutions (cells without *), read-out: EC50 Phytophthora spp.; for % control Phytophthora spp. 20 ppm / inhibition of growth at 20 ppm: 20 ppm in amended PDA, 18° C., reduction in colony growth vs control plate; for inhibition of growth at 20 ppm: read-out: % control Phytophthora spp. 20 ppm
Description: (§1) Testing was carried out on potato dextrose agar (PDA) amended with each compound at a test concentration of 20 ppm. Amended agar was poured into three replicate 9 cm petri dishes. Each replicate dish was inoculated in the centre with a 5 mm agar plug taken from the leading edge of a culture aged between 2 and 7 days old; the age of the culture was dependant on the growth rate of the pathogen being tested. The test pathogens were Pythium ultimum and Phytophthora cinnamomi. Plates were incubated at 18° C. and the diameter of each colony measured before growth on the fastest growing plate reached the plate edge. This varied between 2 and 7 days depending on the growth rate of test pathogens. The % reduction in colony growth compared to the control plate was calculated for each pathogen. The results are provided in Table 1, in which D represents no control detected at this concentration; C represents up to 50% control; B from 50 to 99% control; and A represents a control of greater than 99%, i.e. no detectable colony growth.
(§2) Alternatively, or in addition, the same assay was conducted at descending test concentrations with 5-fold dilutions typically down to 0.032 ppm though sometimes as low as 0.00026 ppm, and an EC50 (the concentration at which 50% control would be achieved) was determined. The results are provided in Table 1 in which G represents an EC50 above 20 ppm, F represents an EC50 of 1-20 ppm and E represents and EC50 less than 1 ppm.

oomycete plant pathogens = experiment: Fungicidal activity testing, overall summary; conditions: summary statement on Table 1
Description: The activity of compounds of the invention was assessed by testing against certain oomycete plant pathogens and representative data are presented in Table 1.

Pythium ultimum [1] = experiment: Amended agar assay (PDA), colony growth; parameters: key to % control Pythium ultimum 20 ppm: D: no control detected at this concentration; C: up to 50% control; B: from 50 to 99% control; A: a control of greater than 99%, i.e. no detectable colony growth; conditions: for EC50 / inhibition of growth at 20 ppm: Globisporangium ultimum; for EC50: amended agar, 5-fold dilutions; for inhibition of growth at 20 ppm / % control Pythium ultimum 20 ppm: 20 ppm in amended PDA, 18° C., reduction in colony growth vs control plate
Description: as §1, §2

Pythium ultimum [2] = experiment: Amended agar assay (PDA), colony growth; conditions: Globisporangium ultimum; read-out: % control Pythium ultimum 2 ppm

SMILES | EC50 (Phytophthora cinnamomi) | control over the pathogens tested (oomycete plant pathogens) | EC50 (Pythium ultimum [1]) | % control Phytophthora spp. 20 ppm (Phytophthora cinnamomi) | inhibition of growth at 20 ppm (Pythium ultimum [1]) | inhibition of growth at 20 ppm (Phytophthora cinnamomi) | % control Pythium ultimum 20 ppm (Pythium ultimum [1]) | inhibition of growth at 2 ppm (Pythium ultimum [2])
CC(=O)Nc1nc(CSc2nc3ccccc3n2-c2nnnn2C)cs1 [Example 11] | < 1 µg/mL | good to excellent control | < 1 µg/mL | – | – | – | – | –
Cc1cccc(CSc2nc3ccccc3n2-c2nnnn2C)n1 [Example 13] | > 20 µg/mL | – | > 20 µg/mL | D | < 50% | – | – | –
Cn1nnnc1-n1c(SCc2cccc(C(=O)O)n2)nc2ccccc21 [Compound 29] | – | – | – | – | – | < 50% | D | –
Cn1nnnc1-n1c(SCc2ccccn2)nc2ccc(F)cc21 [Example 7] | < 1 µg/mL | good to excellent control | < 1 µg/mL | – | – | – | – | –
O=C(Nc1cccc(CSc2nc3ccccc3n2-c2ncncc2Cl)n1)C(F)(F)Oc1ccccc1 [Example 45] | < 1 µg/mL | good to excellent control | < 1 µg/mL | – | – | – | – | –
Cc1cccnc1-n1c(SCc2cccc(NCC(F)(F)Oc3ccccc3)n2)nc2ccccc21 [Example 4] | 1 to 20 µg/mL (≈ 1.99 to 39.7 µM) | – | 1 to 20 µg/mL (≈ 1.99 to 39.7 µM) | – | – | – | – | –
COC(=O)c1cccc(CSc2nc3ccccc3n2-c2ncccc2C)n1 [Example 46] | – | – | – | – | – | < 50% | D | –
Cn1nnnc1-n1c(SCc2ccccn2)nc2ccc(Br)cc21 [Example 52] | < 1 µg/mL | good to excellent control | 1 to 20 µg/mL (≈ 2.49 to 49.7 µM) | – | 50 to 99% | 50 to 99% | – | –
Cn1nnnc1-n1c(SCc2cccc(NC(=O)C(F)(F)Oc3ccccc3)n2)nc2ccccc21 [Example 1, 2,2-Difluoro-N-(6-(((1-(1-methyl-1H-tetrazol-5-yl)-1H-benzo[d]imidazol-2-yl)thio)methyl)pyridin-2-yl)-2-phenoxyacetamide] | < 1 µg/mL | good to excellent control | < 1 µg/mL | – | > 99% | > 99% | – | –
Cn1nnnc1-n1c(SCc2cccc(NC(=O)C(F)(F)Oc3ccccc3)n2)nc2ccc(F)cc21 [Example 8] | < 1 µg/mL | good to excellent control | < 1 µg/mL | – | – | – | – | 50 to 99%
Cn1ccnc1-n1c(SCc2ccccn2)nc2ccccc21 [Example 49] | 1 to 20 µg/mL (≈ 3.11 to 62.2 µM) | good to excellent control | 1 to 20 µg/mL (≈ 3.11 to 62.2 µM) | – | > 99% | 50 to 99% | – | –
Cc1noc(-n2c(SCc3ccccn3)nc3ccccc32)c1C [Example 6] | – | – | – | – | 50 to 99% | 50 to 99% | – | –
CNc1nc(CSc2nc3ccccc3n2-c2nnnn2C)cs1 [Example 17] | < 1 µg/mL | good to excellent control | < 1 µg/mL | – | > 99% | > 99% | – | –
Cc1cccnc1-n1c(SCc2ccccn2)nc2ccccc21 [Example 10] | – | – | – | – | 50 to 99% | < 50% | – | –
Cn1nnnc1-n1c(SCc2cccc(NC(=O)OC(C)(C)C)n2)nc2ccccc21 [Example 9] | < 1 µg/mL | good to excellent control | < 1 µg/mL | – | – | – | – | –
Cn1nnnc1-n1c(SCc2cccc(N)n2)nc2ccccc21 [Example 26, 6-(((1-(1-Methyl-1H-tetrazol-5-yl)-1H-benzo[d]imidazol-2-yl)thio)methyl)pyridin-2-amine] | – | good to excellent control | – | – | > 99% | > 99% | – | –
Cn1nnnc1-n1c(SCc2ccccn2)nc2ccccc21 [Example 2] | < 1 µg/mL | good to excellent control | 1 to 20 µg/mL (≈ 3.09 to 61.8 µM) | – | > 99% | 50 to 99% | – | > 99%
Cn1nnnc1-n1c(SCc2csc(NC(=O)OC(C)(C)C)n2)nc2ccc(Br)cc21 [Example 53] | < 1 µg/mL | good to excellent control | < 1 µg/mL | – | – | – | – | –
c1ccc(CSc2nc3ccccc3n2-c2ncon2)nc1 [Compound 31] | > 20 µg/mL | – | > 20 µg/mL | – | < 50% | – | – | –
Cn1nnnc1-n1c(SCc2csc(NC(=O)OC(C)(C)C)n2)nc2ccccc21 [Example 23] | < 1 µg/mL | good to excellent control | < 1 µg/mL | – | – | – | – | –

SMILES | EC50 (Phytophthora cinnamomi) | control over the pathogens tested (oomycete plant pathogens) | EC50 (Pythium ultimum [1]) | % control Phytophthora spp. 20 ppm (Phytophthora cinnamomi) | inhibition of growth at 20 ppm (Pythium ultimum [1]) | inhibition of growth at 20 ppm (Phytophthora cinnamomi) | % control Pythium ultimum 20 ppm (Pythium ultimum [1]) | inhibition of growth at 2 ppm (Pythium ultimum [2])
Cn1nnnc1-n1c(SCc2csc(NC(=O)C(F)(F)Oc3ccccc3)n2)nc2ccccc21 [Example 22] | < 1 µg/mL | good to excellent control | < 1 µg/mL | – | – | – | – | –
c1ccc(CSc2nc3ccccc3n2-c2ccccn2)nc1 [Compound 32] | – | – | – | D | – | – | D | –
COC(=O)CSc1nc2ccccc2n1-c1nnnn1C [Example 24] | – | – | – | – | < 50% | 50 to 99% | – | –
Cc1nccnc1-n1c(SCc2ccccn2)nc2ccccc21 [Example 20] | > 20 µg/mL | – | > 20 µg/mL | D | < 50% | – | – | –
Cn1nnnc1-n1c(SCc2cnc(Cl)s2)nc2ccccc21 [Compound 30] | > 20 µg/mL | – | > 20 µg/mL | D | – | – | D | –
Cn1nnnc1-n1c(SCc2ccccn2)nc2c(F)cc(F)cc21 [Example 21] | < 1 µg/mL | good to excellent control | < 1 µg/mL | – | > 99% | > 99% | – | –
O=C(Nc1cccc(CSc2nc3ccccc3n2-c2ccccn2)n1)C(F)(F)Oc1ccccc1 [Compound 33] | > 20 µg/mL | – | > 20 µg/mL | D | – | – | D | –
Cn1nccc1-n1c(SCc2ccccn2)nc2ccccc21 [Example 5] | – | – | – | – | < 50% | < 50% | – | –
COC(=O)c1cccc(CSc2nc3ccccc3n2-c2nnnn2C)n1 [Example 18] | – | – | – | D | < 50% | – | – | –
CC(=O)Nc1cccc(CSc2nc3ccccc3n2-c2nnnn2C)n1 [Example 27, N-(6-(((1-(1-Methyl-1H-tetrazol-5-yl)-1H-benzo[d]imidazol-2-yl)thio)methyl)pyridin-2-yl)acetamide] | – | good to excellent control | – | – | > 99% | 50 to 99% | – | –
Cn1nnnc1-n1c(SCC(=O)N2CCCC2)nc2ccccc21 [Example 25] | < 1 µg/mL | good to excellent control | < 1 µg/mL | – | – | – | – | 50 to 99%
Cn1nnnc1-n1c(SCc2csc(N)n2)nc2ccccc21 [Example 3] | – | good to excellent control | – | – | > 99% | > 99% | – | –
Cn1nnnc1-n1c(SCc2cscn2)nc2ccccc21 [Example 12] | < 1 µg/mL | good to excellent control | < 1 µg/mL | – | – | – | – | –
Cc1nc(CSc2nc3ccccc3n2-c2nnnn2C)cs1 [Example 16] | 1 to 20 µg/mL (≈ 2.91 to 58.2 µM) | good to excellent control | 1 to 20 µg/mL (≈ 2.91 to 58.2 µM) | – | > 99% | 50 to 99% | – | –
c1ccc(CSc2nc3ccccc3n2-c2ccon2)nc1 [Example 15] | > 20 µg/mL | – | > 20 µg/mL | D | < 50% | – | – | –
CCOC(=O)Nc1cccc(CSc2nc3ccccc3n2-c2nnnn2C)n1 [Example 28, Ethyl (6-(((1-(1-methyl-1H-tetrazol-5-yl)-1H-benzo[d]imidazol-2-yl)thio)methyl)pyridin-2-yl)carbamate] | < 1 µg/mL | good to excellent control | < 1 µg/mL | – | – | – | – | –
Cn1nnnc1-n1c(SCc2cc3ccccc3cn2)nc2ccccc21 [Example 19] | – | – | – | – | 50 to 99% | 50 to 99% | – | –
Cc1cc(-n2c(SCc3ccccn3)nc3ccccc32)sn1 [Example 14] | – | – | – | – | < 50% | < 50% | – | –
Cn1ccnc1-n1c(SCc2cccc(NC(=O)C(F)(F)Oc3ccccc3)n2)nc2ccccc21 [Example 50] | < 1 µg/mL | good to excellent control | < 1 µg/mL | – | – | – | – | –
